Results as given in paper PMC3818834 (2013).

Columns and labels:
[1] = test system: CA-70 (DNA, aptamer) GGTCAGCACGCTCCGGACTTGGGTGGGTGGGTTGGGGTACGGTGCGTAATGTGTCGCTGAGCCTGCCAAC; experiment: fluorescence titration; conditions: 138 mM NaCl, 2.7 mM KCl, 2.5 mM MgCl2, 10 mM PBS pH 7.4, 0.05% TWEEN 20, 25 °C
[2] = test system: CA-16 (DNA, aptamer) GGGTGGGTGGGTTGGG; experiment: CD melting at 265 nm; conditions: 138 mM NaCl, 2.7 mM KCl, 2.5 mM MgCl2; 10 mM PBS pH 7.4; compound 10 µM, nucleic acid 10 µM; Tm without compound 73 °C
[3] = test system: CA-40 (DNA, aptamer) ACGCTCCGGACTTGGGTGGGTGGGTTGGGGTACGGTGCGT; experiment: fluorescence titration; conditions: 138 mM NaCl, 2.7 mM KCl, 2.5 mM MgCl2; 10 mM PBS pH 7.4, 0.05% TWEEN 20, 25 °C; compound 1 µM; 1:1 assumed
[4] = test system: CA-23A (DNA, aptamer) ACTTGGGTGGGTGGGTTGGGGTA; experiment: fluorescence titration; conditions: 138 mM NaCl, 2.7 mM KCl, 2.5 mM MgCl2; 10 mM PBS pH 7.4, 0.05% TWEEN 20, 25 °C; compound 1 µM; 1:1 assumed
[5] = test system: CA-23B (DNA, aptamer) TTTTGGGTGGGTGGGTTGGGGTA; experiment: fluorescence titration; conditions: 138 mM NaCl, 2.7 mM KCl, 2.5 mM MgCl2; 10 mM PBS pH 7.4, 0.05% TWEEN 20, 25 °C; compound 1 µM; nucleic acid up to 10 µM
[6] = test system: CA-20 (DNA, aptamer) TGGGTGGGTGGGTTGGGGTA; experiment: fluorescence titration; conditions: 138 mM NaCl, 2.7 mM KCl, 2.5 mM MgCl2; 10 mM PBS pH 7.4, 0.05% TWEEN 20, 25 °C; compound 1 µM; nucleic acid up to 10 µM
[7] = test system: CA-19 (DNA, aptamer) GGGTGGGTGGGTTGGGGTA; experiment: fluorescence titration; conditions: 138 mM NaCl, 2.7 mM KCl, 2.5 mM MgCl2; 10 mM PBS pH 7.4, 0.05% TWEEN 20, 25 °C; compound 1 µM; nucleic acid up to 10 µM
[8] = test system: CA-18A (DNA, aptamer) TGGGTGGGTGGGTTGGGG; experiment: fluorescence titration; conditions: 138 mM NaCl, 2.7 mM KCl, 2.5 mM MgCl2, 10 mM PBS pH 7.4, 0.05% TWEEN 20, 25 °C, compound 1 µM
[9] = test system: CA-18B (DNA, aptamer) GGGTGGGTGGGTTGGGGT; experiment: fluorescence titration; conditions: 138 mM NaCl, 2.7 mM KCl, 2.5 mM MgCl2; 10 mM PBS pH 7.4, 0.05% TWEEN 20, 25 °C; compound 1 µM; nucleic acid up to 10 µM
[10] = test system: CA-17 (DNA, aptamer) GGGTGGGTGGGTTGGGG; experiment: fluorescence titration; conditions: 138 mM NaCl, 2.7 mM KCl, 2.5 mM MgCl2, 10 mM PBS pH 7.4, 0.05% TWEEN 20, 25 °C, compound 1 µM
[11] = test system: CA-16 (DNA, aptamer) GGGTGGGTGGGTTGGG; experiment: fluorescence titration; conditions: 138 mM NaCl, 2.7 mM KCl, 2.5 mM MgCl2, 10 mM PBS pH 7.4, 0.05% TWEEN 20, 25 °C, compound 1 µM
[12] = test system: CA-19 (DNA, aptamer) GGGTGGGTGGGTTGGGGTA; experiment: fluorescence polarization; conditions: 138 mM NaCl, 2.7 mM KCl, 2.5 mM MgCl2; 10 mM PBS pH 7.4, 0.05% TWEEN 20, 25 °C; compound 1 µM; nucleic acid up to 10 µM
[13] = test system: CA-16 (DNA, aptamer) GGGTGGGTGGGTTGGG; experiment: fluorescence polarization; conditions: 138 mM NaCl, 2.7 mM KCl, 2.5 mM MgCl2; 10 mM PBS pH 7.4, 0.05% TWEEN 20, 25 °C; compound 1 µM

| Kd ([1]; nucleic acid up to 10 µM) [µM] | Kd ([1]; compound 1 µM, 1:1 assumed) [µM] | Kd [3] [µM] | Kd [6] [µM] | Kd [7] [µM] | Kd [9] [µM] | Compound | other results |
| --- | --- | --- | --- | --- | --- | --- | --- |
| > 10 | – | – | – | – | – | O=C(O)Cc1ccc2[nH]c3ccccc3c(=O)c2c1 | – |
| > 10 | – | – | – | – | – | O=C1OC2(c3ccc(O)cc3Oc3cc(O)ccc32)c2ccccc21 | – |
| – | 4.6 ± 0.3 | 5.6 ± 0.5 | > 10 | > 10 | > 10 | CC[C@@]1(O)C(=O)OCc2c1cc1n(c2=O)Cc2cc3ccccc3nc2-1 | Kd ([8]; nucleic acid up to 10 µM): > 10 µM; Kd ([10]; nucleic acid up to 10 µM): > 10 µM; Kd ([11]; 1:1 assumed): 4.2 ± 0.4 µM |
| > 10 | – | – | – | – | – | O=c1c2ccccc2[nH]c2ccccc12 | – |

Further lines, the molecule ahead of its results:

| Compound | Kd ([1]; nucleic acid up to 10 µM) [µM] | Kd ([1]; compound 1 µM, 1:1 assumed) [µM] | Kd [3] [µM] | Kd [6] [µM] | Kd [7] [µM] | Kd [9] [µM] | other results |
| --- | --- | --- | --- | --- | --- | --- | --- |
| Cc1cc2nc3c(=O)[nH]c(=O)nc-3n(C[C@H](O)[C@H](O)[C@H](O)COP(=O)(O)O)c2cc1C | – | – | – | – | – | – | Kd [1]: 8.5 µM |
| CC[C@@]1(O)C(=O)OCc2c1cc1n(c2=O)Cc2c-1nc1ccccc1c2CN1CCC(NC(=O)COCC(=O)NCCOCCOCCOCCOCCOCCOCCOCCOCCOCCOCCOCCN)CC1 | – | 1.8 ± 0.3 | 3.0 ± 0.4 | > 10 | > 10 | > 10 | binding [2]: yes; Kd [4]: 2.1 ± 0.9 µM; Kd [5]: > 10 µM; Kd ([8]; 1:1 assumed): 6.0 ± 0.8 µM; Kd ([10]; 1:1 assumed): 8.1 ± 0.9 µM; Kd [11]: 1.8 ± 0.3 µM; binding [12]: no; binding [13]: yes |
| CC[C@@]1(O)C(=O)OCc2c1cc1n(c2=O)Cc2c-1nc1ccccc1c2CN1CCC(N)CC1 | – | 3.6 ± 0.2 | 3.0 ± 0.2 | > 10 | > 10 | > 10 | Kd ([8]; 1:1 assumed): 3.4 ± 0.3 µM; Kd ([10]; 1:1 assumed): 8.9 ± 1.0 µM; Kd ([11]; 1:1 assumed): 2.7 ± 0.3 µM |
